# Reference: patent publication US20230106519A1, “GOLD(III)-BIGUANIDE PRODRUGS, METHODS OF PREPARATION AND USES THEREOF” (National University of Singapore, priority 2020, published 2023)
# Values joined by “and” are separate entries in the source; they are usually repeats but may differ in a detail not shown here. Equal values may be shown once.
# Columns and labels:
# [1] = system: TAMH (transforming growth factor-a transgenic mouse hepatocytes); assay: MTT toxicity assay in hepatocytes TAMH; details: read-out: EC50 TAMH, exposure time 72 hours
# Procedure: (§2) Cell lines and culture conditions. Human ovarian carcinoma cells A2780 and A2780cisR, and human breast adenocarcinoma MDA-MB-231 cells, murine hepatocytes TAMH and human cardiomyocytes AC10 were obtained from ATCC.
# Inhibition of cell viability assay. The cytotoxicity of the compounds was determined by colorimetric MTT assay. The cells were harvested from culture flasks by trypsinization and seeded into Cellstar 96-well microculture plates at the seeding density of 6000 cells per well (6×10^4 cells/mL). TAMH and AC10 cells were seeded at 12000 and 5000 cells per well, respectively. After cells were allowed to resume exponential growth for 24 hours, they were exposed to drugs at different concentrations in media for 72 hours. The drugs were diluted in complete medium at the desired concentration and added to each well (100 μL) and serially diluted to other wells. After exposure for 72 hours, the media was replaced with MTT in media (5 mg/mL, 100 μL) and incubated for additional 45 minutes. Subsequently, the medium was aspirated and the purple formazan crystals formed in viable cells were dissolved in DMSO (100 μL). Optical densities were measured at 570 nm using the BioTek H1 Synergy microplate reader. […] Evaluation was based on means from at least three independent experiments, each comprising six replicates per concentration level. […]
# insulin receptor (IR) = insulin receptor (IR) (Homo sapiens, UniProt P06213); assay: Kinase screening, radioactive 33P-ATP filter-binding assay, IR; details: 10 μM of 3met
# Sequence of insulin receptor (IR) (P06213 1001-1382 limits assumed): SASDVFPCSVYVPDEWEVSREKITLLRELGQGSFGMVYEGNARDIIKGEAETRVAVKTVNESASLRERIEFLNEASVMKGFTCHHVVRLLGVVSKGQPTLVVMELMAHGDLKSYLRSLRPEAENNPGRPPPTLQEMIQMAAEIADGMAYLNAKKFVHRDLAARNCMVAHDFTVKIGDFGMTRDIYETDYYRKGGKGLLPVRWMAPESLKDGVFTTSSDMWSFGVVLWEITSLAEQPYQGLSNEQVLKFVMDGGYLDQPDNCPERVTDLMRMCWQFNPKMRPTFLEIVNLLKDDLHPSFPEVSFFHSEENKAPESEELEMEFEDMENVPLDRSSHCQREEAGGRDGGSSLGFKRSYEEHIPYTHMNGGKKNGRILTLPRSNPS
# Procedure: (§3) Kinase screening was performed at the International Centre for Kinase profiling (University of Dundee, UK) according to literature procedure (Bain J, Plater L, Elliott M, Shpiro N, Hastie C J, McLauchlan H, et al. The selectivity of protein kinase inhibitors: a further update. Biochem J 2007; 408:297-315).
# [2] = system: AC10 (human ventricular cardiomyocytes); assay: MTT toxicity assay in cardiomyocytes AC10; details: read-out: EC50 AC10; MTT assay, exposure time 72 hours
# Procedure: as §2
# (§4) Inhibition of cell viability assay. The cytotoxicity of the compounds was determined by colorimetric MTT assay. The cells were harvested from culture flasks by trypsinization and seeded into Cellstar 96-well microculture plates at the seeding density of 6000 cells per well (6×10^4 cells/mL). TAMH and AC10 cells were seeded at 12000 and 5000 cells per well, respectively. After cells were allowed to resume exponential growth for 24 hours, they were exposed to drugs at different concentrations in media for 72 hours. The drugs were diluted in complete medium at the desired concentration and added to each well (100 μL) and serially diluted to other wells. After exposure for 72 hours, the media was replaced with MTT in media (5 mg/mL, 100 μL) and incubated for additional 45 minutes. Subsequently, the medium was aspirated and the purple formazan crystals formed in viable cells were dissolved in DMSO (100 μL). Optical densities were measured at 570 nm using the BioTek H1 Synergy microplate reader. […] Evaluation was based on means from at least three independent experiments, each comprising six replicates per concentration level. For experiments with inhibitors, MDA-MB-231 cells were seeded at the seeding density of 8000 cells per well (8×10^4 cells/mL).
# [3] = system: LC3-II, p62, Ulk1 (Ser757); assay: Western blot, autophagy markers
# Procedure: Western blotting. MDA-MB-231 cells were seeded into Cellstar 6-well plates (Greiner Bio-One) at a density of 60×10^4 cells/well (2 mL per well). After the cells were allowed to resume exponential growth for 24 hours, they were exposed to compounds of interest at various concentrations for 2, 6 and 24 hours. The cells were washed twice with PBS and lysed with RIPA buffer (50-100 μL) and kept for 5-10 minutes at 4° C. The samples were sonicated in ice bath (3 times for 30 seconds). The supernatant was then collected after centrifugation (1.3×10^4 rpm, 4° C. for 15 minutes) and total protein content of each sample was quantified via Bradford's assay. Equal quantities of protein (50 μg) were reconstituted in loading buffer (5× Laemmli Buffer with 5% DTT) and heated at 100° C. for 10 minutes. Subsequently, the protein mixtures were resolved on a 8%, 10% or 12% SDS-PAGE gel by electrophoresis (90 V for 30 minutes followed by 120 V for 60 minutes) and transferred onto a nitrocellulose membrane (200 mA for 2 hours). The protein bands were visualised with Ponceau S stain solution and the nitrocellulose membranes were cut into strips based on the protein ladder. The membranes were washed with a TBS-T wash buffer (0.1% Tween-20 in 1×PBS) 3 times for 5 minutes. Subsequently, they were blocked in 5% BSA (w/v) in wash buffer for 1 hour and incubated with the appropriate primary antibodies in 5% BSA (w/v) in wash buffer at 4° C. overnight. The membranes were washed with a wash buffer 3 times for 7 minutes. After incubation with HRP-conjugated secondary antibodies in 2% BSA (w/v) in wash buffer (room temperature, 2 hours), the membranes were washed with a wash buffer 4× for 5 minutes. Immune complexes were detected with Luminata HRP substrates and analysed using enhanced chemiluminescence imaging. Actin was used as a loading control. […]
# One of the hallmarks of autophagy was the conversion of cytosolic LC3-I to autophagosome-bound LC3-II which was monitored by Western Blotting.
# BiP, CHOP, p-elF2α = details: 0.5 and 2EC50, 2, 6 and 24 hours
# Procedure: (§5) Western blotting. MDA-MB-231 cells were seeded into Cellstar 6-well plates (Greiner Bio-One) at a density of 60×10^4 cells/well (2 mL per well). After the cells were allowed to resume exponential growth for 24 hours, they were exposed to compounds of interest at various concentrations for 2, 6 and 24 hours. The cells were washed twice with PBS and lysed with RIPA buffer (50-100 μL) and kept for 5-10 minutes at 4° C. The samples were sonicated in ice bath (3 times for 30 seconds). The supernatant was then collected after centrifugation (1.3×10^4 rpm, 4° C. for 15 minutes) and total protein content of each sample was quantified via Bradford's assay. Equal quantities of protein (50 μg) were reconstituted in loading buffer (5× Laemmli Buffer with 5% DTT) and heated at 100° C. for 10 minutes. Subsequently, the protein mixtures were resolved on a 8%, 10% or 12% SDS-PAGE gel by electrophoresis (90 V for 30 minutes followed by 120 V for 60 minutes) and transferred onto a nitrocellulose membrane (200 mA for 2 hours). The protein bands were visualised with Ponceau S stain solution and the nitrocellulose membranes were cut into strips based on the protein ladder. The membranes were washed with a TBS-T wash buffer (0.1% Tween-20 in 1×PBS) 3 times for 5 minutes. […] Immune complexes were detected with Luminata HRP substrates and analysed using enhanced chemiluminescence imaging. […]
# MDA-MB-231 cells [4] = assay: Cellular accumulation of Au by ICP-MS; details: ICP-MS after 24 hour exposure at 1.4 μM
# Procedure: Cellular accumulation of Au complexes was determined in MDA-MB-231 cells. Cells were seeded into Cellstar 6-well plates (Greiner Bio-one) at a density of 60×10^4 cells/well (2 mL per well). After the cells were allowed to resume exponential growth for 24 hours, they were exposed to compounds of interest at various concentrations for 24 hours at 37° C. The cells were washed twice with 1 mL of PBS and lysed with RIPA lysis buffer for 5-10 min at 4° C. The cell lysates were scraped from the wells and transferred to separate 1.5 mL microtubes. The supernatant was then collected after centrifugation (13000 rpm, 4° C. for 15 minutes) and total protein content of each sample was quantified via Bradford's assay. […] The resulting solution was diluted to 1 mL (2-4% v/v HNO3) with ultrapure Milli-Q water. Au content of each sample was quantified by ICP-MS. Re was used as an internal standard. […] Metal standards for calibration curve (0, 0.5, 1, 2, 5, 10, 20, 40 ppb) were freshly prepared before each measurement. All readings were made in triplicates in He mode.
# [5] = tumor-bearing mice
# Procedure: Organ distribution studies: At the experimental endpoint, the hearts were perfused with PBS immediately before the excision of the organs. Brain, liver, kidney, spleen, heart, lung, bone and tumor tissues were collected from each mouse and flash-frozen in liquid nitrogen. The organs of the vehicle-treated mouse were used for the measurements of the background. The organs were lyophilized for 4 days, weighed, mechanically minced and digested in 100 μl of ultrapure 65% HNO3 at 105° C. for 3 days. The resulting solution was diluted to 2% v/v HNO3 with ultrapure Milli-Q water. Gold content was measured by ICP-MS as described above.
# Additionally, the Au biodistribution across various organs in tumor-bearing mice was assessed.
# [6] = molecular target: protein kinase B beta (PKBβ) (Homo sapiens, UniProt P31751, S474D); assay: Kinase screening, radioactive 33P-ATP filter-binding assay, PKBβ; details: 10 μM of 3met
# Sequence of protein kinase B beta (PKBβ) (P31751 120-481 S474D limits assumed): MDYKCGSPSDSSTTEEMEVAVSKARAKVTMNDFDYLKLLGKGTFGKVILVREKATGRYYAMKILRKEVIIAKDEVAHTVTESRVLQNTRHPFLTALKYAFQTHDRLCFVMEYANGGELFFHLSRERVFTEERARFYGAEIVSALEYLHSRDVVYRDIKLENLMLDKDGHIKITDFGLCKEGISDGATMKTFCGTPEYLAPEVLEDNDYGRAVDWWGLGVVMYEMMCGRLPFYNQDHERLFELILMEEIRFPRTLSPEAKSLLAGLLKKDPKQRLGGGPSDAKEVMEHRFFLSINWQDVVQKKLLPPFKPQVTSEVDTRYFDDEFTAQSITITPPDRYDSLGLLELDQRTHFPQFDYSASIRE
# Procedure: as §3
# MDA-MB-231 cells [7] = system: MDA-MB-231 cells
# Procedure: Mitochondrial bioenergetics (MitoStress assay): Oxygen Consumption Rate (OCR) was monitored by using Seahorse XF^e24 Cell MitoStress Test Kit (Seahorse Bioscience). Prior to the assay, XF sensor cartridges were hydrated. MDA-MB-231 cells were seeded onto XF^e24-well cell culture plates at a density of 4×10^4 cells/well in 250 μL DMEM complete growth medium and then incubated for 48 h at 37° C. in 5% CO2 incubator. The cells were subsequently exposed to compounds of interest at different concentrations for 24 hours. The wells were washed with 250 μL of pre-warmed Seahorse XF DMEM media, supplemented with 10 mM glucose, 1 mM sodium pyruvate and 2 mM glutamine, pH 7.4 and replaced with 525 μL of this media. The plate was incubated at 37° C. in a non-CO2 incubator for 1 hour before the measurement. Three baseline measurements of OCR were recorded and 1 μM of olygomycin (ATP synthase complex inhibitor), 1 μM of FCCP (ATP synthesis uncoupler trifluorocarbonylcyanide phenylhydrazone) and a mixture of 0.5 μM of antimycin-A (inhibitor of complex III) and 0.5 μM of rotenone (inhibitor of electron transfer from Fe-S center of complex I to ubiquinone) were added in sequence. OCR was measured using Seahorse XF^e24 Cell Bioanalyzer (Seahorse Biosciences). The media was removed from the wells and 60 μL of 0.1 M NaOH was added. After vigorous pipetting, the protein content was quantified by BCA assay and OCR was normalized per protein content.
# MDA-MB-231 cells [8] = system: MDA-MB-231 cells; remark: listed apart in the source
# Procedure: as §4
# MDA-MB-231 cells [9] = system: MDA-MB-231 cells; remark: listed apart in the source
# Procedure: Glycolysis Stress Test assay: Extracellular acidification rate (ECAR) was monitored by using Seahorse XF^e24 Glycolysis Stress Test Kit (Seahorse Bioscience). Prior to the assay, XF sensor cartridges were hydrated. MDA-MB-231 cells were seeded onto XF^e24-well cell culture plates at a density of 4×10^4 cells/well in 250 μL DMEM complete growth medium and then incubated for 48 hours at 37° C. in 5% CO2 incubator. The cells were subsequently exposed to compounds of interest at different concentrations for 24 hours. The wells were washed with 250 μL of pre-warmed Seahorse XF DMEM media, supplemented with 100 mM glutamine, pH 7.4 and replaced with 525 μL of this media. The plate was incubated at 37° C. in a non-CO2 incubator for 1 hour before the measurement. Three baseline measurements of ECAR were recorded and 10 mM of glucose, 1 μM of olygomycin and 100 mM of 2-deoxyglucose (2-DG) were added in sequence. ECAR was measured using Seahorse XF^e24 Cell Bioanalyzer (Seahorse Biosciences). The media was removed from the wells and 60 μL of 0.1 M NaOH was added. After vigorous pipetting, the protein content was quantified by BCA assay and OCR was normalized per protein content.
# [10] = Procedure: (§1) Animal experiments: 6-week-old female athymic nude mice were purchased from Invigo. Animals were housed in animal-holding units at Center for Comparative Medicine, Northwestern University in a pathogen-free environment at constant temperature in a 12/12-hour light/dark cycle. All animal procedures were carried out in accordance with a protocol approved by the Institutional Animal Care and Use Committee, Protocol number: IS00002999. Animals were acclimatized for 2 weeks following arrival before the beginning of experiments. Mice were allowed free access to food and water. […] MDA-MB-231 cells expressing firefly luciferase were collected by trypsinization and mixed with Matrigel (1:1) for fat pad injections. The MDA-MB-231 cell/matrigel mixture (100 μI) was injected into the fat pad of the fourth mammary glands on both sides of 6-week-old female athymic nude-Foxn1^nu mice (Envigo) at 2.5×10^5 cells/gland under ketamine/xylazine anesthesia (50-100/5-10 mg/kg). Ketaprofen and Buprenophrine SR were injected subcutaneously for pain management at 2-5 mg/kg and 0.5-1 mg/kg, respectively. The growth of tumors was monitored by live animal imaging. Once tumors became palpable (week 2 after tumor implantation), treatment was initiated. Animals were separated into two groups (7 mice in each group) and tumor dimensions were measured using a caliper by width×length (mm^2). […] Animals were sacrificed on week 6. Animals were controlled for distress development. Their weight changes were monitored every 2-3 days for 6 weeks. […] Statistical analysis was done by Student's unpaired T-test and One-way Anova test with post-hoc Dunnett test using GraphPad Prism 9 software.
# The tolerability of the chosen dose level was judged based on the weight loss and clinical score.
# [11] = system: MDA-MB-231 (breast adenocarcinoma); assay: MTT cytotoxicity assay, MDA-MB-231; details: read-out: EC50 MDA-MB-231; MTT assay, exposure time 72 hours
# Procedure: (§6) Human ovarian carcinoma cells A2780 and A2780cisR, and human breast adenocarcinoma MDA-MB-231 cells, murine hepatocytes TAMH and human cardiomyocytes AC10 were obtained from ATCC. […] The stock of cisplatin was commercially available clinical grade solution in saline buffer.
# (§7) Inhibition of cell viability assay. The cytotoxicity of the compounds was determined by colorimetric MTT assay. The cells were harvested from culture flasks by trypsinization and seeded into Cellstar 96-well microculture plates at the seeding density of 6000 cells per well (6×10^4 cells/mL). TAMH and AC10 cells were seeded at 12000 and 5000 cells per well, respectively. After cells were allowed to resume exponential growth for 24 hours, they were exposed to drugs at different concentrations in media for 72 hours. The drugs were diluted in complete medium at the desired concentration and added to each well (100 μL) and serially diluted to other wells. After exposure for 72 hours, the media was replaced with MTT in media (5 mg/mL, 100 μL) and incubated for additional 45 minutes. Subsequently, the medium was aspirated and the purple formazan crystals formed in viable cells were dissolved in DMSO (100 μL). Optical densities were measured at 570 nm using the BioTek H1 Synergy microplate reader. […] Evaluation was based on means from at least three independent experiments, each comprising six replicates per concentration level.
# [12] = molecular target: extracellular signal-regulated kinase 1 (ERK1) (Homo sapiens, UniProt P27361); assay: Kinase screening, radioactive 33P-ATP filter-binding assay, ERK1; details: 10 μM of 3met
# Sequence of extracellular signal-regulated kinase 1 (ERK1) (P27361 whole entry): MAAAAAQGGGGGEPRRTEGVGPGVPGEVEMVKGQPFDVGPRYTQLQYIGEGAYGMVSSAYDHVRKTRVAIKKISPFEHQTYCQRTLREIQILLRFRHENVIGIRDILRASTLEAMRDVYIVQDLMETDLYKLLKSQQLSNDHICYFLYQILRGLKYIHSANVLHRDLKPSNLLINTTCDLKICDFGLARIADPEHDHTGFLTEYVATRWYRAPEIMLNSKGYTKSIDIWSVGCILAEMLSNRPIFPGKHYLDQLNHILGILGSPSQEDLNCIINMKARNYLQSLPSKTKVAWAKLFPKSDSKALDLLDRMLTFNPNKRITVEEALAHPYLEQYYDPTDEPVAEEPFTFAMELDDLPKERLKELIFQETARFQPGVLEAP
# Procedure: as §3
# [13] = system: A2780 (ovarian carcinoma); assay: MTT cytotoxicity assay, A2780; details: read-out: EC50 A2780; MTT assay, exposure time 72 hours
# Procedure: as §6, §7
# MDA-MB-231 tumors [14] = system: MDA-MB-231 tumors
# Procedure: as §1
# Luciferase-transfected MDA-MB-231 cells were injected into […] 2 fat pads near inguinal nipples and tumor growth was controlled by bioluminescent imaging.
# [15] = Reactivity towards glutathione, ligand release (HR-MS, UV-vis); type: physicochemical
# Excerpt: NMR- and MS-based stability studies.
# Intriguingly, the reactivity of Au^III-metformin complexes towards GSH was drastically different despite their similar structures.
# MDA-MB-231 tumors [16] = assay: Histopathological examination of H&E-stained tumors (QuPath)
# [17] = system: A2780cisR (ovarian carcinoma); assay: MTT cytotoxicity assay, A2780cisR
# Procedure: as §6, §7
# [18] = Stability in ammonium carbonate buffer by high resolution ESI-MS; details: ammonium carbonate buffer pH 7.4, 37° C., 1, 3 and 24 hours
# Procedure: NMR and mass spectrometric (MS) methods were employed to characterize the stability of Au complexes in DMSO and aqueous media. ^1H NMR stability studies were performed over the period of 6-10 days in d^6-DMSO and D2O (1met*).
# rat liver TrxR = molecular target: T1, rat liver TrxR (Rattus norvegicus, UniProt O89049); assay: Thioredoxin reductase inhibition, DTNB reduction assay; details: read-out: IC50 TrxR; DTNB reduction assay, exposure time 30 min
# T1 sequence (O89049 1-499): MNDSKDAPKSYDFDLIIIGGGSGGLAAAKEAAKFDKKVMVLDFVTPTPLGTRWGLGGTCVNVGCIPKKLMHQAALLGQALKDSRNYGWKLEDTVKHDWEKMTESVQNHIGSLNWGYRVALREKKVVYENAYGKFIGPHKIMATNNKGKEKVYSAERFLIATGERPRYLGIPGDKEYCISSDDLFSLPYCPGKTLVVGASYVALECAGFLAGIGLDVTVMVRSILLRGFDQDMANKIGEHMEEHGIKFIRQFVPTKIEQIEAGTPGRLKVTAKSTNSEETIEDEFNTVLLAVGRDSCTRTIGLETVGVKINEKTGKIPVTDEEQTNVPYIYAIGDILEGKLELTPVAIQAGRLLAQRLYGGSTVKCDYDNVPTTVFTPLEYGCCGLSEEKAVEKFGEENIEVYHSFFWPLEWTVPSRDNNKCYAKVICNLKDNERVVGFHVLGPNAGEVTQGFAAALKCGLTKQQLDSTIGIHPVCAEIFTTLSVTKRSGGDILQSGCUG
# Procedure: Thioredoxin reductase inhibition assay. Assay was performed according to the protocol provided by the manufacturer. […] Compounds of interest were serially diluted at the separate 96-well plate and 4 μl of each concentration was added to the appropriate wells. The reaction mixture was incubated with gentle shaking (room temperature, 30 minutes). Subsequently, 6 μl of DNTB (100 mM) was added and incubated for an additional 3 minutes.
# Compounds of interest at six different concentrations were incubated with the isolated rat liver TrxR enzyme in the presence of NADPH for 30 minutes, followed by 2 minutes incubation with the DNTB reagent.
# [19] = system: c-Jun N-terminal kinase (JNK); details: MDA-MB-231, apparent after 24 hours
# Procedure: as §5
smiles,measurement,setting,value
CN(C)C1=[NH+][Au-]2([NH]C(N)=N1)[c]1ccccc1C(=O)c1cccc[n+]12.F[P-](F)(F)(F)(F)F (stereo not shown) [Compound 3met],EC50,[1],2700 ± 700 nM
same,inhibition of IR kinase,insulin receptor (IR),70%
same,EC50,[2],7.4 ± 3 µM
same,Ulk1 phosphorylation at Ser757,"[3]; 2EC50, 24 hours",marked dephosphorylation of Ulk1 at Ser757 site
same,p62 levels,[3]; MDA-MB-231,increase of p62 levels
same,LC3-II expression,"[3]; MDA-MB-231, concentration- and time-dependent",significantly enhanced the expression of LC3-II
same,CHOP expression over time,"BiP, CHOP, p-elF2α",time-dependent increase of CHOP
same,Cellular accumulation MDA-MB-231,MDA-MB-231 cells [4],1.37 ± 0.48 nmol Au/mg protein
same,Au biodistribution in words,[5],selectively accumulated in tumors
same,inhibition of PKBβ,[6],100%
same,non-mitochondrial respiration,MDA-MB-231 cells [7]; 24 hours,not significantly inhibited
same,mitochondrial bioenergetic parameters (OCR),"MDA-MB-231 cells [7]; 24 hours, increasing concentrations",dose-dependent progressive decrease of all mitochondrial bioenergetic parameters
same,concentration significantly inhibiting mitochondrial respiration,MDA-MB-231 cells [7]; as low as,1.5 µM
same,increase of 3met activity in presence of 3-MA,"MDA-MB-231 cells [8]; 3-methyladenine 2 mM, 24 hours",more than 2 times
same,abrogation of 3met-induced cell death by cycloheximide,"MDA-MB-231 cells [8]; CHX 12.5 μM, 24 hours",≈ 3.5 times
same,abrogation of 3met activity by SP600125,MDA-MB-231 cells [8]; JNK inhibitor SP600125 20 μM,≈ 1.7 fold
same,"glycolytic parameters (ECAR), low concentration","MDA-MB-231 cells [9]; 0.05 μM, 24 hours",significant increase of all glycolytic parameters
same,"glycolytic reserve (ECAR), higher concentration","MDA-MB-231 cells [9]; 1.5 μM, 24 hour exposure",significantly declined glycolytic reserve
same,weight loss,"[10]; 20 mg/kg, day 6",11% and 10%
same,dose-limiting toxicity,[10]; histopathological changes,kidney and liver toxicity
same,maximum tolerated dose (MTD),"[10]; intraperitoneal route, daily for 4-5 days",15 mg/kg
same,EC50,[11],720 ± 80 nM
same,inhibition of ERK1,[12],90%
same,EC50,[13],150 ± 30 nM
same,tumor growth,"MDA-MB-231 tumors [14]; 15 mg/kg i.p., weeks 3, 4 and 5, vs vehicle",no tumor growth was observed after week 3
same,deaths in drug-treated group,"MDA-MB-231 tumors [14]; 15 mg/kg, 7 mice per group",Two mice died
same,kidney histopathology,"MDA-MB-231 tumors [14]; H&E, endpoint, 5 weeks","distorted glomeruli, dilated tubules, edema exudate, light necrosis"
same,liver histopathology,"MDA-MB-231 tumors [14]; H&E, endpoint, 5 weeks","vacualization, fatty changes, periportal lymphoid infiltration and expansion of Disse space in A and B, and focal necrosis in C"
same,decrease of peak area of 3met+ (M+) signal,"[15]; 1 eq. GSH, ammonium carbonate",more than 27 fold
same,increase of peak area of metformin signal (m/z 130.1078),"[15]; 1 eq. GSH, ammonium carbonate, after 3 hours",more than 5 fold
same,reactivity towards GSH / ligand release in words,"[15]; with GSH, HR-MS and UV-vis",time-dependent release of metformin
same,inflammatory cells infiltration of tumors,MDA-MB-231 tumors [16]; H&E,marked inflammatory cells infiltration
same,Area,MDA-MB-231 tumors [16]; single tumor image,23769502 μm^2 and 27637537.7 μm^2 and 28709913 μm^2
same,Necrosis %,MDA-MB-231 tumors [16]; single tumor image,32.52% and 41% and 26.24%
same,Necrosis area,MDA-MB-231 tumors [16]; single tumor image,7.73 mm^2 and 11.33 mm^2 and 7.533 mm^2
same,Perimeter,MDA-MB-231 tumors [16]; single tumor image,20891.3 μm and 25672.2 μm and 21813.3 μm
same,Tumor %,MDA-MB-231 tumors [16]; single tumor image,60.11% and 34.58% and 66.37%
same,Tumor area,MDA-MB-231 tumors [16]; single tumor image,14.29 mm^2 and 9.556 mm^2 and 19.05 mm^2
same,RF (Resistance Factor),[17]; IC50 (A2780cisR)/IC50 (A2780),4
same,EC50,"[17]; read-out: EC50 A2780cisR, MTT assay, exposure time 72 hours",530 ± 70 nM
same,"stability, detection of molecular ion [M]+",[18],stable for 24 hours
same,IC50,rat liver TrxR,1.3 ± 0.3 nM
same,JNK phosphorylation,[19],JNK phosphorylation already at 0.5 EC50 drug concentrations
